Assay results: US5945450A, “Naphthalene derivative” (Teijin Limited, priority 1994, dated 1999)

Experiments:
Assay type in all cases: cell-based
human IgE antibodies = assay: In vitro inhibition of the production of human IgE antibodies (lymphocytes + IL-4 + anti CD40Ab + IL-10, ELISA); details: Lymphocyte, 3 μM, read-out: Inhibition of antibody production (%) IgE
Procedure: (§1) According to the method described in J. Immunol., 146:1836-1842, 1991 and J. Immunol., 147:8-13, 1991, the concentrations of IgE and IgG antibodies were measured by the procedures described below.
(§2) Peripheral venous blood was sampled from the healthy person, and submitted to density-gradient centrifugation to isolate lymphocytes. The lymphocytes thus obtained were washed and suspended in a culture medium (RPMI-1640 (provided by Gibco)+10% heat-inactivated FCS (Whittaker)+100 µg/ml streptomycin+100 U/ml penicillin+2mM L-glutamine). The cell suspensions were cultured for 1 week in the presence/absence of the compounds of this invention at the concentrations as described in Tables 3-1 to 3-2 together with human interleukin 4 (IL-4, Genzyme)([…]), anti CD40 antibodies (anti CD40Ab, Biosource, clone B-B20)([…]) and human interleukin 10 (IL-10, Genzyme)([…]). The culture medium was supplied freshly to the cell suspension, and the mixture was further cultured for another week. The supernatant was sampled and the concentrations of IgE and IgG antibodies therein were measured by sandwich ELISA.
(§3) The ELISA was based, for the assay of IgE antibodies, on the use of rabbit anti-human IgE() antibodies (ICN) as the primary antibody and biotin-linked anti-human IgE monoclonal antibodies (G7-26, PharMingen) as the secondary antibody. For the assay of IgG antibodies, anti-human IgG monoclonal antibodies (G18-145, PharMingen) and biotin-linked donkey anti-human IgG antibodies (H+L)(Jackson) were used for the primary and secondary antibodies, respectively. For the assay of both IgE and IgG antibodies, Avidin-Biotin-Horse Radish Peroxidase (ABC kit, Vector Lab) and TMB (3,3',5,5'-tetramethylbenzidine) microwell peroxidase substrate system (Kirkegaard & Perry Laboratories Inc.) were used as the enzyme and the substrate, respectively. The assays were made by the use of conventionally known ELISA.
(§4) The inhibitory effect (%) of a given compound of this invention on the production of the antibody was calculated with respect to the concentration of the same antibody when the compound was not coexistent (refer to Uejima et al., American Academy of Allergy and Immunology, Proceedings of 1995 Annual Meeting, Program No. 818).

human IgG antibodies = assay: In vitro inhibition of human IgG antibody production (lymphocytes + IL-4 + anti CD40Ab + IL-10, ELISA); details: Lymphocyte, 3 μM
Procedure: as §1, §2, §3, §4

TF (tissue factor) = assay: Inhibitory effects on the TF production in LPS-stimulated human peripheral blood monocytes; details: Monocyte, LPS 1 μg/ml, 16 hours
Procedure: Peripheral venous blood was sampled from the healthy person, and submitted to density-gradient centrifugation so that monocytes might be isolated. The monocytes thus obtained were washed with minimum essential medium (MEM, Gibco) and suspended in a culture medium (RPMI-1640(Gibco)+25 mM HEPES buffer+100 μg/ml streptomycin+100 U/ml penicillin G+2 mM L-glutamine) to give a suspension with a density of 1×10^6 cells/ml. A 0.15 ml of the cell suspension was placed onto each of the wells of a 96-well microplate, to which the compound of this invention as described in Tables 4-1 to 4-2 was added (0.05 ml of the culture medium), and the assembly was placed for 1 hour in a CO2 incubator for cultivation. Then, LPS (lipopolysaccarides, E. coli 0111B4, Difco) 1 μg/ml was added thereto, and the assembly was further cultured for 16 hours. After the supernatant being removed, the residue was washed with physiological saline, 0.1 ml of 16 mM OG (n-octyl-β-D-glucopyranoside) was added thereto, and the assembly was stirred to make TF soluble. A 0.2 ml of physiological saline was added to each residue (final dilution was […]) and this preparation was used for determination of the coagulation stimulating activity (TF-like activity). The test compound had been dissolved in DMSO to give a 0.1 M solution which was diluted with the culture medium prior to use. The final concentration of DMSO was 0.01% or less.
To each well of the microplate, 50 μl of human plasma and 50 μl of the test sample prepared as above for determination of the coagulation stimulating activity, or 50 μl of standard thromboplastin (human thromboplastin, Thromborel S, Behringwerke) were added. The microplate was incubated at 37° C. for 5 minutes, to which was added 25 mM CaCl2 (50 μl/well) containing phosphorous lipids (Platelin, Organon Teknica) at a concentration of […] to initiate coagulation. Coagulation was determined on the basis of absorption at 540 nm, and the measurement lasted 7 to 20 minutes. The data were analyzed with a data analyzing software SOFTMax (Molecular Devices) and the maximum rate time was taken as the coagulation time. The logarithmic values of the coagulation times and standard thromboplastin concentrations are plotted, and a regression parabola was drawn among the dots to give a test curve. From the curve, the inhibitory effect (%) of a given test compound on TF production was calculated. (Refer to J. Imnmunol. Methods, 133:21-29, 1990, and Proc. Natl. Acad. Sci. USA, 89:10370-10374, 1992).

Row | SMILES | inhibition at 3 µM (human IgE antibodies) | inhibition at 3 µM (human IgG antibodies) | inhibition at 1 µM (TF (tissue factor)) | inhibition at 3 µM (TF (tissue factor)) | inhibition at 10 µM (TF (tissue factor))
1 | C=CCOc1ccc2cc(Oc3ccc(CC(=O)Nc4ccccc4C(=O)O)cc3)ccc2c1 [compound 1218] | 91.4% | 47.8% | – | – | –
2 | O=C(Nc1ccccc1C(=O)O)c1ccc(Cc2ccc3ccccc3c2)cc1 [compound 4103] | 45.5% | -4.2% | 16.5% | 74.4% | 100%
3 | COC(=O)c1ccccc1NC(=O)c1ccc(Oc2ccc3ccccc3c2)cc1 [Compound No. 1101, 2-(4-(2-naphthyloxy)benzamide)benzoic Acid Methyl Ester] | 30.3% | -2.8% | – | – | –
4 | O=C(Nc1ccccc1-c1nnn[nH]1)c1ccc(Oc2ccc3ccccc3c2)cc1 [Compound No. 1109, 1-(4-(2-naphtyloxy)benzamide)-2-(tetrazol-5-yl)benzene] | – | – | 74.9% | 99.4% | 99.7%
5 | COC(c1ccc(C(=O)Nc2ccccc2C(=O)O)cc1)c1ccc2ccccc2c1 (stereo not drawn) [compound 8102] | 60% | 9.7% | – | – | –
6 | COc1ccc2cc(Oc3ccc(C(=O)Nc4ccccc4C(=O)O)cc3)ccc2c1 [compound 1204] | 64% | -11.4% | 75.7% | 100% | 100%
7 | O=C(Nc1ccccc1C(=O)O)c1ccc(CSc2ccc3ccccc3c2)cc1 [compound 6102] | – | – | – | 75.8% | 100%
8 | O=C(Nc1ccccc1)c1ccc(Oc2ccc3ccccc3c2)cc1 [Compound No. 1105, N-phenyl-4-(2-naphtyloxy)benzamide] | 42.4% | -6.4% | – | – | –
9 | O=C(CCc1ccc(Oc2ccc3ccccc3c2)cc1)Nc1ccccc1C(=O)O [compound 1146] | – | – | – | 23.5% | –
10 | O=C(Nc1ccccc1C(=O)O)c1ccc(Oc2ccc3ccccc3c2)c(C(=O)Nc2ccccc2C(=O)O)c1 [compound 1122] | 59.9% | 9.7% | – | – | –
11 | O=C(Cc1ccc(Oc2ccc3cc(OC4CCCCC4)ccc3c2)cc1)Nc1ccccc1C(=O)O [compound 1212] | 89.1% | 74.6% | – | – | –
12 | O=C(Nc1ccccc1C(=O)O)c1ccc(Oc2ccc3ccccc3c2)c(C(=O)O)c1 [compound 1120] | 19.9% | 13.6% | – | – | –
13 | O=C(Cc1ccc(Oc2ccc3cc(O)ccc3c2)cc1)Nc1ccccc1C(=O)O [Compound No. 1208, 2-(4-(6-hydroxy-2-naphtyloxy)phenylacetamide)benzoic Acid] | 86.2% | -8.4% | – | – | –
14 | O=C(Cc1ccc(Oc2ccc3cc(OCc4ccccc4)ccc3c2)cc1)Nc1ccccc1C(=O)O [compound 1224] | 78.6% | 83.2% | – | – | –
15 | O=C(Nc1ccccc1O)c1ccc(Oc2ccc3ccccc3c2)cc1 [Compound No. 1106, 2-(4-(2-naphtyloxy)benzamide)phenol] | 42.6% | -25.3% | – | – | –
16 | O=C(Nc1ccccc1C(=O)O)c1ccc(Sc2ccc3ccccc3c2)cc1 [compound 3102] | 19.9% | -2.8% | – | 100% | –
17 | O=C(Nc1ccccc1C(=O)O)c1ccc(Oc2ccc3ccccc3c2)c([N+](=O)[O-])c1 [compound 1116] | 93% | 36.9% | – | 96.6% | –

Row | SMILES | inhibition at 3 µM (human IgE antibodies) | inhibition at 3 µM (human IgG antibodies) | inhibition at 1 µM (TF (tissue factor)) | inhibition at 3 µM (TF (tissue factor)) | inhibition at 10 µM (TF (tissue factor))
18 | COC(=O)c1ccccc1NC(=O)Cc1ccc(Oc2ccc3ccccc3c2)cc1 [compound 1123] | 21.7% | -0.8% | – | – | –
19 | O=C(Nc1ccccc1C(=O)O)c1cccc(Oc2ccc3ccccc3c2)c1 [compound 1113] | – | – | 25.3% | 83.6% | 100%
20 | O=C(Nc1ccccc1-c1nnn[nH]1)c1ccc(Sc2ccc3ccccc3c2)cc1 [Compound No. 3104, 1-(4-(2-naphtylthio)benzamide)-2-(tetrazol-5-yl)benzene] | – | – | – | 96.9% | –
21 | Nc1cc(C(=O)Nc2ccccc2C(=O)O)ccc1Oc1ccc2ccccc2c1 [Compound No. 1118, 2-(3-amino-4-(2-naphtyloxy)benzamide)benzoic Acid] | 77.2% | -12.9% | – | 86.9% | –
22 | CC(C(=O)Nc1ccccc1C(=O)O)c1ccc(Oc2ccc3ccccc3c2)cc1 (stereo not drawn) [compound 1150] | 64.4% | 3.3% | – | – | –
23 | N#Cc1ccccc1NC(=O)c1ccc(Sc2ccc3ccccc3c2)cc1 [Compound No. 3103, 2-(4-(2-naphtylthio)benzamide)benzonitrile] | 41.9% | 3.5% | – | 77.9% | –
24 | O=C(Nc1ccccc1C(=O)O)c1ccc(Oc2ccc3cc(OCc4ccccc4)ccc3c2)cc1 [compound 1206] | 84% | 11.5% | – | – | –
25 | O=C(Cc1ccc(Oc2ccc3cc(OCc4ccc5ccccc5c4)ccc3c2)cc1)Nc1ccccc1C(=O)O [compound 1228] | 98.9% | 42.4% | – | – | –
26 | NS(=O)(=O)c1ccccc1NC(=O)c1ccc(Oc2ccc3ccccc3c2)cc1 [Compound No. 1107, 2-(4-(2-naphtyloxy)benzamide)benzenesulfonamide] | 44.9% | -17.2% | – | – | –
27 | O=C(Nc1ccccc1C(=O)O)c1ccc(C(=O)c2ccc3ccccc3c2)cc1 [compound 7102] | 15.4% | 5.4% | – | 10.6% | 81.1%
28 | O=C(Cc1ccc(COc2ccc3ccccc3c2)cc1)Nc1ccccc1C(=O)O [compound 5104] | 51.4% | 1.6% | – | – | –
29 | O=C(Nc1ccccc1C(=O)O)c1ccc(Oc2ccc3cc(O)ccc3c2)cc1 [Compound No. 1202, 2-(4-(6-hydroxy-2-naphtyloxy)benzamide)benzoic Acid] | 76.6% | -8.7% | – | 33.4% | –
30 | O=C(Nc1ccccc1C(=O)O)c1ccc(COc2ccc3ccccc3c2)cc1 [compound 5102] | – | – | 19.8% | 74.1% | 99.9%
31 | CC(C)(C)Oc1ccc2cc(Oc3ccc(CC(=O)Nc4ccccc4C(=O)O)cc3)ccc2c1 [compound 1210] | 92.8% | 59.9% | – | – | –
32 | O=C(Nc1ccccc1C(=O)O)c1ccc(Oc2cccc3ccccc23)cc1 [compound 1111] | 38% | 20% | -9% | 96.2% | 100%
33 | O=C(C=Cc1ccc(Oc2ccc3ccccc3c2)cc1)Nc1ccccc1C(=O)O [compound 1148] | 25.5% | 10.3% | – | 92.9% | –
